The text below walks through data of ChEMBL document CHEMBL1158898, “New flavans, spirostanol sapogenins, and a pregnane genin from Tupistra chinensis and their cytotoxicity” (2003).

The structures appear in SMILES notation.

In one assay the test system is NUGC. Nature of the assay: Cytotoxicity against human NUGC cells at 50 uM. The format is functional.
`COc1ccc2c(c1C)O[C@H](c1ccc(O)cc1)[C@H](O)C2` [TUPICHINOL A]: testing at 50 µM gave an inhibition of 30%. `C=C1CC[C@@]2(OC1)O[C@H]1C[C@H]3[C@@H]4CC[C@]5(O)C[C@@H](OC(C)=O)[C@@H](OC(C)=O)[C@@H](OC(C)=O)[C@]5(C)[C@H]4CC[C@]3(C)[C@H]1[C@@H]2C` [TUPICHIGENIN AA]: the inhibition (usually the relative decrease from the control value, in per cent) at 50 µM worked out at 50%.

Turning to `C=C1CC[C@@]2(OC1)O[C@H]1C[C@H]3[C@@H]4CC[C@]5(O)[C@@H](O)[C@@H](O)[C@@H](O)[C@@H](O)[C@]5(C)[C@H]4CC[C@]3(C)[C@H]1[C@@H]2C`, testing at 50 µM gave an inhibition of 100%.

For the compound `CC(=O)C1=CC[C@H]2[C@@H]3CC=C4C[C@H](O)C[C@@H](O)[C@]4(C)[C@H]3CC[C@]12C` [TUPIPREGNENOLONE], the inhibition at 50 µM came out at 25%. `C=C1CC[C@@]2(OC1)O[C@H]1C[C@H]3[C@@H]4CC[C@]5(O)[C@@H](O)[C@@H](O)C[C@@H](O)[C@]5(C)[C@H]4CC[C@]3(C)[C@H]1[C@@H]2C` [RANMOGENIN A] came in with an inhibition at 50 µM of 80%.

In turn, `C=CCc1ccc(O)c(O)c1` [HYDROXYCHAVICOL] returned an inhibition at 50 µM of 96%.

In turn, `C=C1CC[C@@]2(OC1)O[C@H]1C[C@H]3[C@@H]4CC[C@]5(O)C[C@@H](O)[C@@H](OC(C)=O)[C@@H](OC(C)=O)[C@]5(C)[C@H]4CC[C@]3(C)[C@H]1[C@@H]2C` [TUPICHIGENIN AC] displayed an inhibition at 50 µM of 40%. For the compound `C=C1CC[C@@]2(OC1)O[C@H]1C[C@H]3[C@@H]4CC[C@]5(O)C[C@@H](O)[C@@H](O)[C@@H](O)[C@]5(C)[C@H]4CC[C@]3(C)[C@H]1[C@@H]2C` [TUPICHIGENIN A], testing at 50 µM gave an inhibition of 42%.

Tested on in a further assay: not listed separately
Put plainly: Cytotoxicity against human HONE1 cells at 50 uM. Type of assay: functional.
On to `C=C1CC[C@@]2(OC1)O[C@H]1C[C@H]3[C@@H]4CC[C@]5(O)[C@@H](O)[C@@H](O)[C@@H](O)[C@@H](O)[C@]5(C)[C@H]4CC[C@]3(C)[C@H]1[C@@H]2C`, for which the inhibition at 50 µM is 100%.

The compound `C=C1CC[C@@]2(OC1)O[C@H]1C[C@H]3[C@@H]4CC=C5C[C@H](O)C[C@@H](O)[C@]5(C)[C@H]4CC[C@]3(C)[C@H]1[C@@H]2C` registered an inhibition at 50 µM of 45%. The compound `Oc1ccc([C@H]2CCc3ccc(O)cc3O2)cc1` [TUPICHINOL C] showed an inhibition at 50 µM of 50%.
